According to ChEMBL document CHEMBL1201862, “PubChem BioAssay data set” (2004):
Active and inactive are the calls of the source.

Tests used:
[1] = NIH3T3 cell viability loss – ATP luminescence, mouse fibroblasts, counter-screen, dose response (AID 2010); format: functional, cell-based;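 also: cells exposed to compound for about 90 hours before reading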
cells [2] = format: functional, cell-based
cells [3] = format: functional, cell-based; remark: listed apart in the source
cells [4] = test: cells
[5] = biological target: T1, Trace amine-associated receptor 1 (Homo sapiens, UniProt Q96RJ0); test: Fluorescence-based cell-based high throughput dose response assay to identify agonists of the human trace amine associated receptor 1 (TAAR1).; format: functional
T1 sequence (Q96RJ0 whole entry): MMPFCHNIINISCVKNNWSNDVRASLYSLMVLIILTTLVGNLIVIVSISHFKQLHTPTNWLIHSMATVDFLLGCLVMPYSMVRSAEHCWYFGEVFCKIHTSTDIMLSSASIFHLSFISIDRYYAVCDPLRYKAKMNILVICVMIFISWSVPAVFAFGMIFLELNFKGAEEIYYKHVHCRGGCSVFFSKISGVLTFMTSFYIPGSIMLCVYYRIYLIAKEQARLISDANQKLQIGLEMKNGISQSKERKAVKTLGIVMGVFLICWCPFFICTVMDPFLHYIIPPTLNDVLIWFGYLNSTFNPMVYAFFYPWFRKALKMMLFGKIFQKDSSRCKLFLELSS

[6] = biological target: T1, Trace amine-associated receptor 1; test: Counterscreen for agonists of the human trace amine associated receptor 1 (hTAAR1): Fluorescence-based cell-based high throughput dose response assay to identify hTAAR1 agonist that also desensitize TAAR1 receptor response.; format: functional
[7] = Trypanosoma cruzi growth suppression in host cells – NIH3T3 host cells, beta-gal luminescence, confirmation (AID 2044); format: functional, cell-based;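 also: intracellular parasites grown in NIH/3T3 mouse fibroblasts as host cells; luminescent beta-galactosidase reporter signal from transgenic T. cruzi replicating inside host cells; inhibitors lower the luminescence signal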
[8] = biological target: T2, Tyrosine-protein phosphatase non-receptor type 7 (Homo sapiens, UniProt P35236); test: HePTP tyrosine phosphatase activity blockers – biochemical, absorbance, leukemia target, primary screen (AID 521); format: functional
T2 sequence (P35236 whole entry): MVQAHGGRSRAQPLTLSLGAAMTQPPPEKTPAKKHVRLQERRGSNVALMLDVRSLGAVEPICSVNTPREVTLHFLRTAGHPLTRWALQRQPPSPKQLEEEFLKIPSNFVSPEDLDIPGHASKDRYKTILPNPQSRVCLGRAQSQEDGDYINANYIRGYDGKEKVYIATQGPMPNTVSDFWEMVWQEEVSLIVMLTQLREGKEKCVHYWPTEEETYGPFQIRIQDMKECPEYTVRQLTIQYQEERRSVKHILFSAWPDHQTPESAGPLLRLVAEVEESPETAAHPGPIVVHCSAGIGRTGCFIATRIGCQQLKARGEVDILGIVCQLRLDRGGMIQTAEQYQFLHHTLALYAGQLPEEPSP

cells [9] = format: functional, cell-based; remark: listed apart in the source
cells [10] = format: functional, cell-based; remark: listed apart in the source
[11] = biological target: Mitogen-activated protein kinase 10 (Homo sapiens, UniProt P53779); test: Dose response biochemical screening assay for inhibitors of c-Jun N-Terminal Kinase 3 (JNK3). [Related pubchem assays: 746 ]
Chain of Mitogen-activated protein kinase 10 (P53779 whole entry): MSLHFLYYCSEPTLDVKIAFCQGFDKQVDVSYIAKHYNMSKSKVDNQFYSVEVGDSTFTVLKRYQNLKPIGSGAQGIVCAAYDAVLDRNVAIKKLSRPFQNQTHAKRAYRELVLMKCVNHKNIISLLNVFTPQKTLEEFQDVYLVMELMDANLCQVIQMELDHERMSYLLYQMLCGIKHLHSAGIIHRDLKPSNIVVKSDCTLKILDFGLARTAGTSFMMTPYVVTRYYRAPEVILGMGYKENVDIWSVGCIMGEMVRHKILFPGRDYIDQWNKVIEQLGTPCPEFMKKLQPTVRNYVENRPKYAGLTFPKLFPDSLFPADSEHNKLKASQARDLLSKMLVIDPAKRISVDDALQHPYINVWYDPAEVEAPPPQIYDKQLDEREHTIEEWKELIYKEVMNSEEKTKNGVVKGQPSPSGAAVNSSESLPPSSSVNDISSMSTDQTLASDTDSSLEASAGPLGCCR

Vero [12] = test: mammalian cell viability reduction – secondary assay, cytotoxicity control for West Nile virus antiviral project, dose response (AID 1650); format: functional; conditions: Chlorocebus sabaeus
[13] = DRD fibroblast viability loss – cell-based, non-viral oncogenic, luminescence, dose response (AID 1934); format: functional; conditions: Homo sapiens
BJ [14] = test: BJ-TERT fibroblast viability loss – cell-based, RAS-independent, luminescence, dose response (AID 1933); format: functional; conditions: Homo sapiens
BJ [15] = test: BJ-TERT-LT-ST fibroblast viability loss – cell-based, RAS-independent, luminescence, dose response (AID 1935); format: functional; conditions: Homo sapiens;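 also: BJ fibroblasts immortalized with TERT plus LT and ST oncogenes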
Vero [16] = test: cells; format: functional, cell-based; conditions: Chlorocebus sabaeus
BJ [17] = test: cells; format: functional, cell-based; conditions: Homo sapiens
Vero [18] = test: cells; format: functional; conditions: Chlorocebus sabaeus
[19] = Luminescence Cell-Based Dose Confirmation to Identify Activators of 5'UTR Stem-Loop Driven Alpha-Synuclein mRNA Translation in H4 Neuroglioblastoma Cells. [Related pubchem assays: 1829 (Project Summary), 1814 (Primary HTS)]; format: functional
[20] = Luminescence Cell-Based Dose Response to Identify Activators of 5'UTR Stem-Loop Driven Prion Protein mRNA Translation in H4-C Neuroglioblastoma Cells. [Related pubchem assays: 1829 (Project Summary), 1814 (Primary HTS)]; format: functional
[21] = Luminescence Cell-Based Dose Response HTS to Identify Activators of Luciferase Translation or Activity in H4 […] Cells. [Related pubchem assays: 1829 (Project Summary), 1814 (Primary HTS)]; format: functional
[22] = Luminescence Cell-Based Dose Response to Identify Activators of Luciferase Translation or Activity in H4-C Neuroglioblastoma Cells. [Related pubchem assays: 1829 (Project Summary), 1814 (Primary HTS)]; format: functional

N=C(N)N/N=C/c1ccccc1
EC50 [1]: > 60000 nM (not active)
EC50 (cells [2]): > 29900 nM (inactive)
IC50 (cells [3]): > 29900 nM (inactive)
EC50 (cells [4]): 112 nM (active)
EC50 [5]: > 3320 nM (active)
IC50 [6]: 1670 nM (active)
EC50 [7]: < 100 nM (active)

CC1(C)N(O)CC(c2cccs2)=[N+]1[O-]
IC50 [8]: > 100000 nM (not active)

c1ccc(-n2ncc3c(NCc4ccco4)ncnc32)cc1
EC50 (cells [9]): > 350000 nM (not active)
EC50 (cells [10]): > 350000 nM (not active)
IC50 [11]: 60900 nM (not active)

C[C@H]1O[C@@H](OC2CC[C@]3(C=O)[C@H]4CC[C@]5(C)[C@@H](C6=CC(=O)OC6)CC[C@]5(O)[C@@H]4CC[C@]3(O)C2)CC2OC(C)(C)OC21 (stereo not given in full)
CC50 (Vero [12]): < 39 nM (active)
EC50 [13]: 1140 nM (active)
EC50 (BJ [14]): 1010 nM (active)
EC50 (BJ [15]): 1280 nM (inconclusive)
IC50 (Vero [16]): < 50 nM (active)
EC50 (BJ [17]): 1370 nM (inconclusive)
CC50 (Vero [18]): 100 nM (active)

NC(=O)C1=C[C@H](C2CCCCC2)C[C@H](OCc2ccc(CO)cc2)O1
EC50 [19]: 558 nM (active)
EC50 [20]: 326 nM (active)
EC50 [21]: < 100 nM (inconclusive)
IC50 (Vero [16]): > 25000 nM (active)
EC50 [22]: > 12000 nM (not active)

O=C(CCN1C(=O)/C(=C\c2cccc(Br)c2)SC1=S)N1CCOCC1
CC50 (Vero [12]): 31300 nM (active)
CC50 (Vero [18]): > 25000 nM (active)
